# Residues, ends and D or L forms follow the SMILES beside them.
# Columns and labels:
# [1] = tested on: HMC3 cells; assay: Aβ degradation assay in HMC3 cells with exocytosis inhibitor GW4869; type: cell-based, human; conditions: Aβ 1 µM 1 h, wash, then 3 h with 10 µM GW4869 ± 30 µM HAEE, ELISA, n = 3
# Description: HMC3 cells were treated with 1 µM Aβ in serum-free culture medium for 1 h to allow for peptide internalization. Cells were then washed to remove extracellular Aβ. […] Aβ released into the cell culture medium during the degradation phase was also quantified by ELISA.
# [2] = molecular target: T1, Aβ oligomers (Homo sapiens, UniProt P05067); assay: Dynamic light scattering of Aβ oligomers; type: physicochemical; conditions: Aβ 50 µM in PBS, 24 h 37 °C, then HAEE 500 µM for additional 24 h 37 °C; measured at 25 °C; triplicate
# T1 construct: purchased Peptide Specialty Laboratories GmbH; host or cells: synthetic peptide
# Description: The size distribution of Aβ oligomers was characterized by DLS using a Zetasizer Nano ZS instrument (Malvern Panalytical, Malvern, UK). Oligomeric Aβ was prepared as described in Section 4.6 and further incubated at a concentration of 50 µM in PBS for 24 h at 37 °C to promote oligomerization. To assess the effect of HAEE, the peptide was added to the pre-formed Aβ oligomers at a final concentration of 500 µM (dissolved in PBS), and the mixture was incubated for an additional 24 h at 37 °C. A control sample containing Aβ without HAEE was processed in parallel under identical conditions. Immediately prior to analysis, samples were briefly centrifuged to sediment any large aggregates and transferred to a disposable polystyrene cuvette (Sarstedt, Nümbrecht, Germany). Measurements were performed at 25 °C, and the hydrodynamic diameter (reported as Z-average) and polydispersity index (PDI) were derived from the correlation function using the Zetasizer Software version 7.13 (Malvern Panalytical, Malvern, UK). Each sample was measured in triplicate.
# [3] = tested on: primary astrocyte culture; assay: Aβ uptake and clearance in primary astrocyte culture (ELISA); type: cell-based, C57BL/6 mouse; conditions: Aβ 1 µM, HAEE 30 µM, n = 4
# [4] = tested on: mixed primary culture of mouse brain cells; assay: Aβ uptake and clearance in mixed primary culture of brain cells (ELISA); type: cell-based, C57BL/6 mouse; conditions: Aβ 1 µM, HAEE 30 µM, n = 4
# [5] = tested on: TNFα; assay: TNFα level in mouse brain tissue after i.c.v. oligomeric Aβ and HAEE (ELISA); type: in vivo; conditions: C57BL/6 mice; i.c.v. oligomeric Aβ day 1; HAEE 100 µM 1 μL i.c.v. days 1-3; ELISA of brain homogenate; n = 8
# Description: (§1) After a recovery period, mice were randomly divided into two experimental groups using online GraphPad random number generator (Figure 1A, n = 8 per group): 1. The Aβ group received oligomeric Aβ and vehicle solution (ACSF). 2. The Aβ + HAEE group received oligomeric Aβ and the synthetic tetrapeptide HAEE (100 µM). The group allocation was unknown to the researchers who performed the neurosurgical procedures and ELISA.
# (§2) On day 1, all mice received an intracerebroventricular (i.c.v.) injection of oligomeric Aβ (1 μL). Immediately after, mice received the first i.c.v. injection of either HAEE (1 μL) or ACSF (1 μL). Injections were repeated on days 2 and 3 (HAEE or ACSF only). All injections were performed on awake, freely moving mice through the guide cannula at a rate of 1 μL/min. […]
# (§3) Aβ levels in the brain and cell lysates were measured by sandwich ELISA using BAM113cc capture antibodies (50 ng/well, HyTest, Moscow, Russia) and peroxidase-labeled BAM7cc antibodies (100 ng/well, HyTest, Moscow, Russia) as described in [46]. Aβ level was normalized to the protein concentration in the samples, measured using a Pierce™ BCA Protein Assay Kit (Thermo Fisher Scientific, Waltham, MA, USA). The rate of Aβ degradation was calculated as the difference in normalized Aβ level in the cells between the 48-hour and 24-hour time points divided by 24 h. […]
# [6] = tested on: HMC3 cells; assay: Lysosomal staining of HMC3 cells with LysoTracker Red DND-99; type: cell-based, human; conditions: Aβ 1 μM + HAEE 30 μM, 24 h, 10 cells per field, n = 3
# Description: Two hours prior to the completion of the incubation period, LysoTracker Red DND-99 (Thermo Fisher Scientific, Waltham, MA, USA) was added to the culture medium at a final concentration of 50 nM to label acidic compartments, including active lysosomes. Immediately before live-cell imaging, cell nuclei were counterstained with NucBlue Live Cell Stain (Thermo Fisher Scientific, Waltham, MA, USA) according to the manufacturer’s instructions. Fluorescent images were acquired using a Nikon Eclipse Ni-U (Nikon Corp., Tokyo, Japan) microscope with appropriate filter sets.
# [7] = tested on: HMC3 cells; assay: IL-6 level in HMC3 supernatant (ELISA); type: cell-based, human; conditions: Aβ 1 µM + HAEE 30 µM, 24 h, n = 3
# Description: Subsequently, cells were frozen in liquid nitrogen.
# [8] = molecular target: T2, Aβ (Homo sapiens, UniProt P05067); assay: Aβ level in mouse brain tissue after i.c.v. oligomeric Aβ and HAEE (ELISA); type: in vivo; conditions: C57BL/6 mice, HAEE 100 µM 1 μL i.c.v. days 1-3, n = 8
# T2 construct: purchased Peptide Specialty Laboratories GmbH; host or cells: synthetic peptide
# Description: as §1, §2, §3
# [9] = tested on: HMC3 cells; assay: Intracellular ROS and GSH in HMC3 cells by flow cytometry; type: cell-based, human; conditions: Aβ + HAEE, 24 h
# Description: The cells were stained with dihydrorhodamine 123 (Ex/Em = 507/525 nm) or monobromobimane (Ex/Em = 395/495 nm) according to ThermoFisher Scientific’s instructions. One minute prior to analysis, 10 μg/mL of propidium iodide (Ex/Em = 535/617 nm, Sigma, St. Louis, MO, USA) was added to the cell samples to evaluate the number of dead cells in the population. The analysis was performed using a BD LSR Fortessa flow cytometer (Becton Dickinson, Franklin Lakes, NJ, USA) and FlowJo^TM Software v.10.8.1 (Becton Dickinson, Franklin Lakes, NJ, USA).
# [10] = tested on: IL-6; assay: IL-6 level in mouse brain tissue after i.c.v. oligomeric Aβ and HAEE (ELISA); type: in vivo; conditions: C57BL/6 mice; i.c.v. oligomeric Aβ day 1; HAEE 100 µM 1 μL i.c.v. days 1-3; ELISA of brain homogenate; vs Aβ + ACSF; n = 8
# Description: IL-6 and TNFα in all samples were assessed using commercial ELISA kits (IL-6 Mouse Uncoated ELISA Kit, Mouse TNF alpha Uncoated ELISA Kit, Thermo Fisher Scientific, Waltham, MA, USA) according to the manufacturer’s instructions.
# [11] = tested on: zinc-induced Aβ oligomers; design: method as in PMID 32872553, PMID 21081056; conditions: binds to Aβ at the 11EVHH14 site; cited from earlier work
# [12] = molecular target: T1, Aβ oligomers; assay: Oligomer-specific ELISA of Aβ; type: biochemical; conditions: pre-formed Aβ oligomers in the presence vs absence of HAEE; BAM7cc capture and detection
# Description: To measure Aβ oligomers using ELISA, two antibodies (a capture antibody and a detector antibody) targeting the same epitope are used. This method therefore allows for the detection of predominantly oligomeric forms of Aβ, which have epitopes available for binding to both the detection antibody and the capture antibody.
# BAM7cc antibodies (HyTest, Moscow, Russia), which recognize the N-terminus of Aβ, were added to a 96-well ELISA plate (Wuxi NEST Biotechnology, Wuxi, China) in a volume of 100 μL (0.5 ng/μL) and incubated overnight at +4 °C. The wells of the plate were washed 3 times with 300 μL of PBST (0.05% Tween20) and blocked in 1% BSA (Diaem, Moscow, Russia) in PBST at room temperature and shaken for 1 h. The plate was then washed three times with 300 μL of PBST, and samples were added at a volume of 100 μL per well. The plates were incubated for 2 h at room temperature with shaking, washed 3 times with 300 μL of PBST, and HRP-conjugated BAM7cc antibodies (HyTest, Moscow, Russia) were added at a volume of 100 μL per well (1 ng/μL). The plates were incubated for 1 hour at room temperature with shaking, washed 5 times with 300 μL of PBST, and analyzed using TMB (Diaem, Moscow, Russia). Absorbance was measured at 450 nm using a Multiskan FC Microplate Photometer (Thermo Fisher Scientific, Waltham, MA, USA).
# [13] = tested on: bEnd.3 cells; assay: BBB transwell model: Aβ passage through bEnd.3 monolayer; type: cell-based, mouse; conditions: transwell 0.4 μm, Aβ 100 nM, HAEE 20 μM in abluminal compartment, serum-free DMEM, 37 °C, 24 h, ELISA, n = 5
# Description: For the experiments, mouse bEnd.3 cells were seeded onto the upper surface of transwell inserts (Greiner Bio-One, Kremsmünster, Austria; pore size 0.4 μm) at a density of 70,000 cells per insert and cultured for 7 days to form a confluent monolayer. The volume of medium in the luminal (upper) compartment was 750 μL and in the abluminal (lower) compartment was 1 mL.
# The luminal (upper) compartment contained 700 μL of serum-free DMEM. The plates were incubated at 37 °C and 5% CO2. Samples were collected from the luminal compartment at 24 h. […] To control model BBB integrity, paracellular permeability of the bEnd.3 monolayer was assessed using the fluorescent label sodium fluorescein (Sigma-Aldrich, St. Louis, MO, USA) in each experiment as described in [46].
# [14] = tested on: nicotinic α4β2 acetylcholine receptors; design: method as in PMID 34207317; conditions: cited from earlier work
# [15] = molecular target: T3, LRP1 (Mus musculus, UniProt Q91ZX7); assay: Inhibitory assay: blocking antibody to LRP1, Aβ level in bEnd.3 cells; type: cell-based; conditions: blocking antibody 10 μg/mL 1 h, Aβ 100 nM + HAEE 20 μM, 2 h, ELISA, n = 3–4
# T3 construct: endogenous in cells; host or cells: bEnd.3
# Description: Cells were incubated with blocking antibodies to LRP or Pgp receptors (10 μg/mL, Santa Cruz Biotechnology, Dallas, TX, USA) for 1 h at +37 °C. […] After 2 h, the cells were washed 3 times with PBS, frozen in liquid nitrogen, and lysed in IP lysis buffer (ServiceBio, Wuhan, China) with the addition of a protease inhibitor (Thermo Fisher Scientific, Waltham, MA, USA) for 1 h at +4 °C with stirring. The cell lysate was centrifuged at 16,000× g, +4 °C, 10 min and the supernatant was collected. The amount of total protein in the lysates was determined using a BCA assay kit (Sigma-Aldrich, St. Louis, MO, USA) according to the manufacturer’s protocol.
# [16] = cited from earlier work
# Excerpt: ApoE4 is the primary genetic risk factor for the sporadic form of AD. Unlike other ApoE isoforms, ApoE4 impairs TREM2-dependent microglial phagocytosis, promotes microglial activation, and contributes to chronic neuroinflammation in AD [41, 42].
# [17] = tested on: HMC3 microglial cells; assay: Aβ uptake and clearance in HMC3 microglial cells (ELISA); type: cell-based, human; conditions: Aβ 1 µM, HAEE 30 µM, n = 6
# T1 sequence (P05067 672-713): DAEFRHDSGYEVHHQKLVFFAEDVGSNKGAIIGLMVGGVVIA
# T2 sequence (P05067 672-713): as above
# T3 sequence (Q91ZX7 20-4545): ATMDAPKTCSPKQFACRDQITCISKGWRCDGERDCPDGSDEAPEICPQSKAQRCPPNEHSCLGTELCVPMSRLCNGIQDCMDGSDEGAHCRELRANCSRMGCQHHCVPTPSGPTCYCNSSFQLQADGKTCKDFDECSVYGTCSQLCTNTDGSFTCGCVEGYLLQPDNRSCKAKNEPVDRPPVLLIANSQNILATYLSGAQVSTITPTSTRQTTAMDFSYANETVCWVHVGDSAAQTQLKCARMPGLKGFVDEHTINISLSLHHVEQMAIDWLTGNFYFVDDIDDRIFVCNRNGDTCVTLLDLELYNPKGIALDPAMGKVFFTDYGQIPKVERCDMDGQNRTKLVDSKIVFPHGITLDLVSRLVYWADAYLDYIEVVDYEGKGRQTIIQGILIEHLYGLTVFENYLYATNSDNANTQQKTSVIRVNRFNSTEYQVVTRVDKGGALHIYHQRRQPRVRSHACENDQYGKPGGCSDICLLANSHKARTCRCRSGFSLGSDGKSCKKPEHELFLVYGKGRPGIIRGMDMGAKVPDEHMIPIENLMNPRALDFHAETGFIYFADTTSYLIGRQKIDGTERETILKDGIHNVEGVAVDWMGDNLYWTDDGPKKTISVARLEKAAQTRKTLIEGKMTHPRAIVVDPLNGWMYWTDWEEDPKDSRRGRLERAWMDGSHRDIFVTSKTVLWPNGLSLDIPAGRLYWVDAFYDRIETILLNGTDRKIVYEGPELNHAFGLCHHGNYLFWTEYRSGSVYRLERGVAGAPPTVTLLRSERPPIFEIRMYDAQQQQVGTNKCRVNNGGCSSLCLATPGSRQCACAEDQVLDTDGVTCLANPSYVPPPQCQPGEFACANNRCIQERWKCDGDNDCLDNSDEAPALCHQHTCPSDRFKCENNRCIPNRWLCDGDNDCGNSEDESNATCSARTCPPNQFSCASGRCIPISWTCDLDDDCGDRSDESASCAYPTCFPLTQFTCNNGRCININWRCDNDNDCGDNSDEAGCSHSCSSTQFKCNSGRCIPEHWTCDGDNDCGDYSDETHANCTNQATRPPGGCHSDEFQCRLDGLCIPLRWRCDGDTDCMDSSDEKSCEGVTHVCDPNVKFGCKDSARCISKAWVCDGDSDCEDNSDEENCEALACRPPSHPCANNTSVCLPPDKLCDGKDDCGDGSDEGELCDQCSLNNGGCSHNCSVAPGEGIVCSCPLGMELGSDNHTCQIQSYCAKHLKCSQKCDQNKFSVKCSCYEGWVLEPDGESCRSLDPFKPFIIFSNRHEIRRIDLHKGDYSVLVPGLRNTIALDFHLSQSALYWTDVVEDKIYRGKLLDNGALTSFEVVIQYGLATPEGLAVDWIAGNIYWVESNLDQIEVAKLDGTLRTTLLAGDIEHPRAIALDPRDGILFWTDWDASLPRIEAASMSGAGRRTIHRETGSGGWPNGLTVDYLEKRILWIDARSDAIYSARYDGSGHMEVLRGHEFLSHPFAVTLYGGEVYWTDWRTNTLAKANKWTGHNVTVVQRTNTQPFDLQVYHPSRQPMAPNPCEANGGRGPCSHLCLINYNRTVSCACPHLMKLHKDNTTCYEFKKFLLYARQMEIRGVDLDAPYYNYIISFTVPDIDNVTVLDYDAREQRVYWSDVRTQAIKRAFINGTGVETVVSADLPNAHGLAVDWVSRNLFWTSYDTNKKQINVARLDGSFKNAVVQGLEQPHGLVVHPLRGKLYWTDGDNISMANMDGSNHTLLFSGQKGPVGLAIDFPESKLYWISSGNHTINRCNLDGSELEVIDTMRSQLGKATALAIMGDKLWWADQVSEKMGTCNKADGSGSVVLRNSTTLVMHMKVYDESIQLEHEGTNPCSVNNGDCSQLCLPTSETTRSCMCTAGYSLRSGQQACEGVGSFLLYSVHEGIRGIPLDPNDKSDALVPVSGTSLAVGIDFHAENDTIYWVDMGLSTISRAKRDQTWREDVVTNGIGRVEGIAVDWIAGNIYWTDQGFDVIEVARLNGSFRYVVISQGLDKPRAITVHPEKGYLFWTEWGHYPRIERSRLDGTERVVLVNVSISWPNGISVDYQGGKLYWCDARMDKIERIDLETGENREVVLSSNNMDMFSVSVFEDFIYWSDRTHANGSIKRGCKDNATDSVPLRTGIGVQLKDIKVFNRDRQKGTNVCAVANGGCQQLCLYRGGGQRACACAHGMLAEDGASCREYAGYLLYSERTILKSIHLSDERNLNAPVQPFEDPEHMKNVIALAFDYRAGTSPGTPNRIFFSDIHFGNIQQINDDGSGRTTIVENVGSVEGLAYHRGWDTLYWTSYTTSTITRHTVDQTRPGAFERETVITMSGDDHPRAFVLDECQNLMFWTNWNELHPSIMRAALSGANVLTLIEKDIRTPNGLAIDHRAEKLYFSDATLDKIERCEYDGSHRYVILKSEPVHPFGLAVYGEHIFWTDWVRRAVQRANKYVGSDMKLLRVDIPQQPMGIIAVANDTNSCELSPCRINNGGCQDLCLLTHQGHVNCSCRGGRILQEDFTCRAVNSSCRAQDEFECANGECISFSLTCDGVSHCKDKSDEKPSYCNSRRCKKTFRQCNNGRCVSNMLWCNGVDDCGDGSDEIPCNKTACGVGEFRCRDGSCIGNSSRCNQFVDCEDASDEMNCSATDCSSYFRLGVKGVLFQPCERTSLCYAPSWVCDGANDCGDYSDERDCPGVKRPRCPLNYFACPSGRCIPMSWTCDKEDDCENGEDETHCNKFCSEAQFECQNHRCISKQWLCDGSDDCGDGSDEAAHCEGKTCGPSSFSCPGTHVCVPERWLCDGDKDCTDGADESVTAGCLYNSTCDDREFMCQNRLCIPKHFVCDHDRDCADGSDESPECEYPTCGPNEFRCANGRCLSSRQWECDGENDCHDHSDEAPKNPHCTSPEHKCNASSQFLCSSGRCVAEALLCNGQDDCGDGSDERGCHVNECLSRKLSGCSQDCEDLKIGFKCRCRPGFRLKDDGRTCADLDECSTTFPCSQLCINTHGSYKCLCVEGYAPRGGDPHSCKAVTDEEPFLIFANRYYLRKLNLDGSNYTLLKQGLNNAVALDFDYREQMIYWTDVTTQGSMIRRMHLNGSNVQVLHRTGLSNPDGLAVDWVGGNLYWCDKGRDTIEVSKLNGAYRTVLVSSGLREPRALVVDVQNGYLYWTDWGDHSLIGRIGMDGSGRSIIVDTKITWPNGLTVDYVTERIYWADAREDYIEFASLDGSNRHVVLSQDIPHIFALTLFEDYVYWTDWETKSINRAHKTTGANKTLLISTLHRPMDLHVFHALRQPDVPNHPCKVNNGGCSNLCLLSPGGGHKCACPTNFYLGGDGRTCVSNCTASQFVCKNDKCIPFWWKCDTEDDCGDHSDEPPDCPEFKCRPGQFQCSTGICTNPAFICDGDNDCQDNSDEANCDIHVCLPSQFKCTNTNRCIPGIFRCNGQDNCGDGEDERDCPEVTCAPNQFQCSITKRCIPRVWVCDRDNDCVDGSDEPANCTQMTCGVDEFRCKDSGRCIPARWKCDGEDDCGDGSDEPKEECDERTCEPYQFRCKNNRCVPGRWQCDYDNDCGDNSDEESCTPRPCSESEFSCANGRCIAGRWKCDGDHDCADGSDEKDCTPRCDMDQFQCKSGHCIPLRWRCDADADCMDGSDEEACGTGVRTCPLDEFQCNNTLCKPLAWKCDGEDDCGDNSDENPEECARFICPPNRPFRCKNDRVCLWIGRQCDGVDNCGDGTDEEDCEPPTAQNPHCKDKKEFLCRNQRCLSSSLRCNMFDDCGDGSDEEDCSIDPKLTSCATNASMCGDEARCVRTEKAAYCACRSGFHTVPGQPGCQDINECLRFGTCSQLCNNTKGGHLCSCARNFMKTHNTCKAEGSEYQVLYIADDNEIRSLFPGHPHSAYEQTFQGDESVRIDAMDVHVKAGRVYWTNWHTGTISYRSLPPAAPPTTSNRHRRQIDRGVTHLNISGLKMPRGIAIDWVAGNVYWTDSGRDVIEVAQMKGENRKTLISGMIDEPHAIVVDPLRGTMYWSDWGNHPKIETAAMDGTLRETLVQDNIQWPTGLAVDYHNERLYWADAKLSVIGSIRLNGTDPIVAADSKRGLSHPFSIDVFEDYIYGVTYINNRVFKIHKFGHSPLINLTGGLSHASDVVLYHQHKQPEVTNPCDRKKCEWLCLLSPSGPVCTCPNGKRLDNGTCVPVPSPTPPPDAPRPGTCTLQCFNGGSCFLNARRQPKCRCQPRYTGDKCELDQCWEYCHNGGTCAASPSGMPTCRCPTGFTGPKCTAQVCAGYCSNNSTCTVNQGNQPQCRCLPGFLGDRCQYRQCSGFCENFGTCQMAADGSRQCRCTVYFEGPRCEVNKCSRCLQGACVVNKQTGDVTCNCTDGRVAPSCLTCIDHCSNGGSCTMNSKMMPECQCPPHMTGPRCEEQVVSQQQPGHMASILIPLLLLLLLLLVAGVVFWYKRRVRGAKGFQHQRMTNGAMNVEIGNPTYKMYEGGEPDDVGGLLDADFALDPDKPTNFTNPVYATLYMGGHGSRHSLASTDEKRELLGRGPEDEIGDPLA
compound,measurement,setting,value
"O=C(/C=C/c1ccc(/C=C/C(=O)Nc2ccc(C3=NCCN3)cc2)cc1)Nc1ccc(C2=NCCN2)cc1 [GW4869, reference compound]",effect of GW4869 on HAEE-dependent Aβ clearance in microglial cells,[1],did not prevent the effect of HAEE
"CC(=O)N[C@@H](Cc1c[nH]cn1)C(=O)N[C@@H](C)C(=O)N[C@@H](CCC(=O)O)C(=O)N[C@@H](CCC(=O)O)C(N)=O [HAEE, Acetyl-HAEE-Amide] (Ac-HAEE-NH2)",average size of Aβ oligomers (DLS),[2],reduced their average size
same,effect on the rate of Aβ clearance,[3]; 24–48 h period,did not affect
same,level of intracellular Aβ after 24–48 h of incubation compared to cells treated with Aβ alone,[3]; ELISA,decreased
same,effect on Aβ clearance by the cells at 24–48 h,[4]; clearance rate = difference of Aβ level 48 h vs 24 h divided by 24 h,notably accelerated
same,effect on intracellular Aβ level at 4–24 h,"[4]; medium without FBS, ELISA",did not significantly affect
same,effect on TNFα levels in mouse brain tissue,[5],no effect
same,effect on Aβ-induced changes in lysosomes (size and number),[6],completely abolished
same,effect on Aβ-induced increase in IL-6 level,[7],effectively inhibited
same,reduction of Aβ level in mouse brain tissue,"[8]; 8-month-old, i.c.v. oligomeric Aβ 1 μL day 1, brain lysate ELISA 30 min after final injection, vs Aβ + ACSF",35%
same,Aβ level in the brain of mice treated with HAEE compared to animals that did not receive the tetrapeptide,"[8]; i.c.v. oligomeric Aβ day 1, ELISA",reliably reduced
same,"reduction of intracellular Aβ level, HAEE + GW4869 compared to GW4869 alone",[1],40%
same,effect on Aβ-induced change in reactive oxygen species (ROS) level,"[9]; dihydrorhodamine 123, n = 4",completely prevented
same,effect on Aβ-induced change in reduced glutathione (GSH) level,"[9]; monobromobimane, n = 4",completely prevented
same,decrease in IL-6 levels in mouse brain tissue,[10],40%
same,"formation of toxic, zinc-induced Aβ oligomers",[11],blocks
same,amount of Aβ oligomers (oligomer-specific ELISA),[12],reduced the amount of Aβ oligomers
same,rate of Aβ passage across the BBB from abluminal to luminal compartment,[13],significantly increased
same,effect on the inhibitory effect of Aβ42 on nicotinic α4β2 acetylcholine receptors,[14],completely abolishes
same,"reduction of Aβ uptake by endothelial cells on blocking LRP1, in the presence of HAEE",[15],30%
same,toxicity,[16],non-toxic
same,rate of Aβ clearance,[17]; 24–48 h period,doubled
same,amount of intracellular Aβ after 24 h and 48 h of incubation compared to cells not treated with HAEE,[17]; ELISA,significantly reduced
